How the values were obtained:
[1] = Dynamic surface tension by the bubble pressure method (wetting agent effect); format: physicochemical; conditions: for Dynamic surface tension: 22° C.
Procedure: The dynamic surface tension was determined by the bubble pressure method (BP2100 tensiometer, Krúss) on a timescale relevant for spray application. The dynamic surface tension was measured for solutions of TBPEM-6 and TBPEM-8 in mains water at room temperature (22° C.) and at the typical spray mixture concentrations of 0.3, 1, and 3 g/l.

[2] = test system: apple cuticles; experiment: Percentage penetration of benzyladenine through apple cuticles with and without TBPEM-6; format: in vitro ADME; conditions: 0.2 g/l benzyladenine in acetone/mains water, no additive
Procedure: The method described in the literature (Baur et al., 1997, Pesticide Science 51, 131-152) can be used for determining these properties.
The penetration of the growth promoter benzyladenine (benzylamonopurin) through leaf cuticles was measured at an active ingredient concentration of 0.2 g/l benzyladenine in acetone/mains water, with and without TBPEM-6, at different practically relevant concentrations, 5 hours and 24 hours after application.

Row | Compound | Dynamic surface tension ([1]; 0.3 g/L in mains water, 20 ms) [mN/m] | Dynamic surface tension ([1]; 0.3 g/L in mains water, 100 ms) [mN/m] | Dynamic surface tension ([1]; 0.3 g/L in mains water, 200 ms) [mN/m] | Dynamic surface tension ([1]; 1 g/L in mains water, 20 ms) [mN/m] | Dynamic surface tension ([1]; 1 g/L in mains water, 100 ms) [mN/m] | Dynamic surface tension ([1]; 1 g/L in mains water, 200 ms) [mN/m] | Dynamic surface tension ([1]; 3 g/L in mains water, 20 ms) [mN/m] | Dynamic surface tension ([1]; 3 g/L in mains water, 100 ms) [mN/m] | Dynamic surface tension ([1]; 3 g/L in mains water, 200 ms) [mN/m] | Suitability as wetting agent from dynamic surface tension ([1]; spray application timescale) | Percentage penetration of benzyladenine ([2]; 5 h) [%] | Percentage penetration of benzyladenine ([2]; 24 h) [%]
1 | 2,4,6-tributylphenoxy-ethoxy(6) methyl ether [TBPEM-6] | 70.3 | 65.0 | 62.8 | 62.9 | 54.1 | 52.5 | 55.5 | 42.9 | 41.8 | excellent suitability as a rapid wetting agent | – | –
2 | c1ccc(CNc2ncnc3nc[nH]c23)cc1 [Benzyladenine, benzyladenine] | – | – | – | – | – | – | – | – | – | – | 2.0 | 3.7
3 | tributylphenol ethoxylate(6) [Sapogenat T 060] | 69.9 | 64.6 | 61.4 | 67.3 | 58.6 | 53.2 | 63.4 | 51.8 | 46 | – | – | –

— US20160244390A1, “Etherified Tri-Butylphenol Alkoxylates, Process For Their Preparation And Their Use In Crop Protection Agents” (CLARIANT INTERNATIONAL LTD, priority 2013, published 2016)
